# Experimental data taken from patent publication US12617758B2, “Quinazoline derivative having FLT3 inhibitory activity, and use thereof” (INDUSTRY-UNIVERSITY COOPERATION FOUNDATION HANYANG …, priority 2020, dated 2026).
# Tests used:
# Format in all cases: biochemical
# FLT3 = molecular target: T1, FLT3 (Homo sapiens, UniProt P36888); experiment: FLT3 enzyme activity (IC50); conditions: read-out: FLT3 IC50
# T1 sequence (P36888 27-993): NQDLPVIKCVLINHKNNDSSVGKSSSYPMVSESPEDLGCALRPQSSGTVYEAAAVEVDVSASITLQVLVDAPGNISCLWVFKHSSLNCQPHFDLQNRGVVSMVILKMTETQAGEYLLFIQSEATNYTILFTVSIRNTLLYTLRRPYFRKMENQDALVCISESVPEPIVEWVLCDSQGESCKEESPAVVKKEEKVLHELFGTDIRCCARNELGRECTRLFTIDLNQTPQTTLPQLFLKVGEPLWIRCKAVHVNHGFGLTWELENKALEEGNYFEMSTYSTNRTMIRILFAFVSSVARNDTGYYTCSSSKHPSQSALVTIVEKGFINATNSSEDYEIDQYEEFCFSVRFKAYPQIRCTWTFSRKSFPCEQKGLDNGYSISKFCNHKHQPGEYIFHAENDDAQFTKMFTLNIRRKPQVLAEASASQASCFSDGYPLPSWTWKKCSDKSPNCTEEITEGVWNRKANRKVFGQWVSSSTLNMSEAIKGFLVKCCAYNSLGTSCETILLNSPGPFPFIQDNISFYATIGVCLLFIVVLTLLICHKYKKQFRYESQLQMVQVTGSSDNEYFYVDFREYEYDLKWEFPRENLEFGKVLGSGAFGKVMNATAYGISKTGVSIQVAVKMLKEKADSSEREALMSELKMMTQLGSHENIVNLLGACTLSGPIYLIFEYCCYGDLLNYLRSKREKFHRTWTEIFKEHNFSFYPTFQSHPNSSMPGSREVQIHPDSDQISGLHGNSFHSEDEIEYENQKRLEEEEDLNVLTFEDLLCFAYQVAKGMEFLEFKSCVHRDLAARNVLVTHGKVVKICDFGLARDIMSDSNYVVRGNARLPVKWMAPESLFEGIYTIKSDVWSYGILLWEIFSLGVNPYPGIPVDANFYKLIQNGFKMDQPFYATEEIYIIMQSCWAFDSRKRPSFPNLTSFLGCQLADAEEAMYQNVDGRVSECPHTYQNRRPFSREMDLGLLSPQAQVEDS
# Description: (§1) Experimental Example 1. Measurement of FLT3 and FLT Enzyme Activity
# (§2) Changes in FLT3 and FLT enzyme activities by treatment with the quinazoline derivatives of the following Table 1 according to the present invention were confirmed by IC50.
# FLT (ITD) = molecular target: T2, FLT (ITD) (Homo sapiens, UniProt P36888); experiment: FLT (ITD) enzyme activity (IC50); conditions: read-out: FLT (ITD) IC50
# T2 sequence (P36888 1-993): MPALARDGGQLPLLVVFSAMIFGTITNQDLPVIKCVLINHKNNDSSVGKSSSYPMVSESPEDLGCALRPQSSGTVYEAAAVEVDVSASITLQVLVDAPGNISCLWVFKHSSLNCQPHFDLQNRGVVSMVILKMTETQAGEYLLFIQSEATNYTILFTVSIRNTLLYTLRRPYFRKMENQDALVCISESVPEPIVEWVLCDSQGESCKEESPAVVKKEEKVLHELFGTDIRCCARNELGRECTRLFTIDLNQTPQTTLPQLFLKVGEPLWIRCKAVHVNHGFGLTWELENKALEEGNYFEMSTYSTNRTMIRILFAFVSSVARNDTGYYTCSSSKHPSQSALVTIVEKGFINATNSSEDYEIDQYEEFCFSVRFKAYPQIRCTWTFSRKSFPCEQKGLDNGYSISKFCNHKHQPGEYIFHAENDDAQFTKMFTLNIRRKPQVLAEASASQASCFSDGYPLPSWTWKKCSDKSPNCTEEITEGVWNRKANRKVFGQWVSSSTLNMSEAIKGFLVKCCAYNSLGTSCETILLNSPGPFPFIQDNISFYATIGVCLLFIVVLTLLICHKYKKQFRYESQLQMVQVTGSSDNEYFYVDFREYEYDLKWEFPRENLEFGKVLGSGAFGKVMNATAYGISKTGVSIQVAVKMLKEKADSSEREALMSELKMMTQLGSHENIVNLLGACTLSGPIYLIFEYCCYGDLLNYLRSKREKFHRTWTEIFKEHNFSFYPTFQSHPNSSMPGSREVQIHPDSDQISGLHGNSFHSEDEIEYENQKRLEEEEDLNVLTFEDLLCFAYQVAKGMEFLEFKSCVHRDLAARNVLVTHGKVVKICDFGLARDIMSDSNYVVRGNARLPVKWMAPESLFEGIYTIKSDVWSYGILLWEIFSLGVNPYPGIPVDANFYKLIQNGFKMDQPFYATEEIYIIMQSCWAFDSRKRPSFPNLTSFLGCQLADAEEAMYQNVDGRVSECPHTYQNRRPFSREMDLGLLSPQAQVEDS
# Description: as §1, §2
# ERK1 = ERK1 (Homo sapiens, UniProt P27361); experiment: Kinase panel screening; conditions: control SCH772984 instead of staurosporine
# Sequence of ERK1 (P27361 whole entry, species assumed): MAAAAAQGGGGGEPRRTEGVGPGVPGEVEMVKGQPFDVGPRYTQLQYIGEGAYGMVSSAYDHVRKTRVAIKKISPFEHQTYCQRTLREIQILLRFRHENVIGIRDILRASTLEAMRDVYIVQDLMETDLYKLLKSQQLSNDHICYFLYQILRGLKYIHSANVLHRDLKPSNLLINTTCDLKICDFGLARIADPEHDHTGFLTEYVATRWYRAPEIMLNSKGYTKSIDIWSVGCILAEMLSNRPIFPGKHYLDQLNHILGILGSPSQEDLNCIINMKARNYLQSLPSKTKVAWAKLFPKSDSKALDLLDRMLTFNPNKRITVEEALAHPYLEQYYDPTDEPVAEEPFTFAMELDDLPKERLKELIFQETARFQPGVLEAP
# RIPK3 = RIPK3 (Homo sapiens, UniProt Q9Y572); experiment: Kinase panel screening; conditions: read-out: IC50 (nM), data of GW5074, control GW5074 instead of staurosporine
# Sequence of RIPK3 (Q9Y572 whole entry, species assumed): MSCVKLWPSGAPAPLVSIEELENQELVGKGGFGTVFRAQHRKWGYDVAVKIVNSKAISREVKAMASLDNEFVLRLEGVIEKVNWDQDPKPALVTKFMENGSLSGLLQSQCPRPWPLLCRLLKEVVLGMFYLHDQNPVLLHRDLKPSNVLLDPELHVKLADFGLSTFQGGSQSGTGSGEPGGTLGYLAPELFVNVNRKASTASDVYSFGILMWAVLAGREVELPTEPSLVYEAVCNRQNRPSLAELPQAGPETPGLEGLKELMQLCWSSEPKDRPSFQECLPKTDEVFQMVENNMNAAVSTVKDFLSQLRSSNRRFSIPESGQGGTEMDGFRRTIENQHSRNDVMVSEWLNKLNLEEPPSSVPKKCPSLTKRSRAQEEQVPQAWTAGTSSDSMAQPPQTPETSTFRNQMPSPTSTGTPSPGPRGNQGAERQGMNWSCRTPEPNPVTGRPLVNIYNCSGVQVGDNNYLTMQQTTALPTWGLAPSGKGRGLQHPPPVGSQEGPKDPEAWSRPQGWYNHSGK
# Method: Next, kinase panel screening for Compound 7d was investigated for 36 different kinases at a single dose of 10 μM (FIG. 1 and Table 3).
IC50 (FLT3) [µM],IC50 (FLT (ITD)) [µM],IC50 (ERK1) [nM],IC50 (RIPK3) [nM],Structure (SMILES)
–,–,4.47,–,"O=C(Nc1ccc2[nH]nc(-c3ccncc3)c2c1)[C@@H]1CCN(CC(=O)N2CCN(c3ccc(-c4ncccn4)cc3)CC2)C1 [SCH772984, reference compound]"
> 10,> 10,–,–,"COc1ccc(CCc2ncc3ccc(NC(=O)c4cnoc4C)cc3n2)cc1 [Compound 7w, N-(2-(4-methoxyphenethyl)quinazolin-7-yl)-5-methylisoxazole-4-carboxamide]"
> 10,> 10,–,–,"Cc1oncc1C(=O)Nc1ccc2cnc(-c3ccccn3)nc2c1 [Compound 7q, 5-methyl-N-(2-(pyridin-2-yl)quinazolin-7-yl)isoxazole-4-carboxamide]"
> 10,> 10,–,–,"Cc1oncc1C(=O)Nc1ccc2cnc(-c3ccc4c(c3)CCO4)nc2c1 [Compound 7v, N-(2-(2,3-dihydrobenzofuran-5-yl)quinazolin-7-yl)-5-methylisoxazole-4-carboxamide]"
> 10,> 10,–,–,"Cc1oncc1C(=O)Nc1ccc2cnc(Cc3ccccc3C(F)(F)F)nc2c1 [Compound 7t, 5-methyl-N-(2-(2-(trifluoromethyl)benzyl)quinazolin-7-yl)isoxazole-4-carboxamide]"
–,–,–,1650,"O=C1Nc2ccc(I)cc2/C1=C/c1cc(Br)c(O)c(Br)c1 [GW5074, reference compound]"
> 10,> 10,–,–,"Cc1oncc1C(=O)Nc1ccc2cnc(-c3ccc4ccccc4c3)nc2c1 [Compound 7u, 5-methyl-N-(2-(naphthalen-2-yl)quinazolin-7-yl)isoxazole-4-carboxamide]"
> 10,> 10,–,–,"Cc1oncc1C(=O)Nc1ccc2cnc(-c3ccncc3)nc2c1 [Compound 7p, 5-methyl-N-(2-(pyridin-4-yl)quinazolin-7-yl)isoxazole-4-carboxamide]"
> 10,> 10,–,–,"Cc1oncc1C(=O)Nc1ccc2cnc(-c3ccc(Cl)c(Cl)c3)nc2c1 [Compound 7r, N-(2-(3,4-dichlorophenyl)quinazolin-7-yl)-5-methylisoxazole-4-carboxamide]"
> 10,> 10,–,–,"Cc1oncc1C(=O)Nc1ccc2cnc(Cc3ccc(F)cc3)nc2c1 [Compound 7s, N-(2-(4-fluorobenzyl)quinazolin-7-yl)-5-methylisoxazole-4-carboxamide]"

# More lines, now with the values behind:
Structure (SMILES),IC50 (FLT3) [µM],IC50 (FLT (ITD)) [µM],IC50 (ERK1) [nM],IC50 (RIPK3) [nM]
"Cc1cn(-c2cc(-c3ncc4ccc(NC(=O)c5cnoc5C)cc4n3)cc(C(F)(F)F)c2)cn1 [Compound 7c, 5-methyl-N-(2-(3-(4-methyl-1H-imidazol-1-yl)-5-(trifluoromethyl)phenyl)quinazolin-7-yl)isoxazole-4-carboxamide]",< 3,< 3,–,–
"Cc1oncc1C(=O)Nc1ccc2cnc(-c3cc(C(C)(C)C)on3)nc2c1 [Compound 7l, N-(2-(5-(tert-butyl)isoxazol-3-yl)quinazolin-7-yl)-5-methylisoxazole-4-carboxamide]",> 10,> 10,–,–
"Cc1oncc1C(=O)Nc1ccc2cnc(-c3cc(F)cc(C(F)(F)F)c3)nc2c1 [Compound 7f, N-(2-(3-fluoro-5-(trifluoromethyl)phenyl)quinazolin-7-yl)-5-methylisoxazole-4-carboxamide]",> 10,> 10,–,–
"Cc1oncc1C(=O)Nc1ccc2cnc(-c3cnn(-c4ccccc4)c3C(F)(F)F)nc2c1 [Compound 7h, 5-methyl-N-(2-(1-phenyl-5-(trifluoromethyl)-1H-pyrazol-4-yl)quinazolin-7-yl)isoxazole-4-carboxamide]",> 10,> 10,–,–
"Cc1oncc1C(=O)Nc1ccc2cnc(-c3cc(OC4CCN(C)CC4)cc(C(F)(F)F)c3)nc2c1 [Compound 7n, 5-methyl-N-(2-(3-((1-methylpiperidin-4-yl)oxy)-5-(trifluoromethyl)phenyl)quinazolin-7-yl)isoxazole-4-carboxamide]",3 to 10,3 to 10,–,–
"Cc1oncc1C(=O)Nc1ccc2cnc(-c3cc(N4CCOCC4)cc(C(F)(F)F)c3)nc2c1 [Compound 7b, 5-methyl-N-(2-(3-morpholino-5-(trifluoromethyl)phenyl)quinzolin-7-yl)isoxazole-4-carboxamide]",3 to 10,3 to 10,–,–
"CC(=O)N1CCC(c2ncc3ccc(NC(=O)c4cnoc4C)cc3n2)CC1 [Compound 7o, N-(2-(1-acetylpiperidin-4-yl)quinazolin-7-yl)-5-methylisoxazole-4-carboxamide]",> 10,> 10,–,–
"Cc1oncc1C(=O)Nc1ccc2cnc(/C=C/c3ccc(Cl)cc3)nc2c1 [Compound 7k, (E)-N-(2-(4-chlorostyryl)quinazolin-7-yl)-5-methylisoxazole-4-carboxamide]",> 10,> 10,–,–
"CCN1CCN(Cc2cc(-c3ncc4ccc(NC(=O)c5cnoc5C)cc4n3)cc(C(F)(F)F)c2)CC1 [Compound 7e, N-(2-(3-((4-ethylpiperazin-1-yl)methyl)-5-(trifluoromethyl)phenyl)quinazolin-7-yl)-5-methylisoxazole-4-carboxamide]",< 3,3 to 10,–,–
"Cc1oncc1C(=O)Nc1ccc2cnc(-c3cccc(Cl)c3)nc2c1 [Compound 7i, N-(2-(3-chlorophenyl)quinazolin-7-yl)-5-methylisoxazole-4-carboxamide]",> 10,> 10,–,–
"COc1ccc(/C=C/c2ncc3ccc(NC(=O)c4cnoc4C)cc3n2)cc1 [Compound 7j, (E)-N-(2-(4-methoxystyryl)quinazolin-7-yl)-5-methylisoxazole-4-carboxamide]",3 to 10,> 10,–,–
"Cc1oncc1C(=O)Nc1ccc2cnc(-c3ccc(Cl)c(C(F)(F)F)c3)nc2c1 [Compound 7g, N-(2-(4-chloro-3-(trifluoromethyl)phenyl)quinazolin-7-yl)-5-methylisoxazole-4-carboxamide]",> 10,> 10,–,–
"Cc1oncc1C(=O)Nc1ccc2cnc(-c3ccc(N4CCOCC4)c(C(F)(F)F)c3)nc2c1 [Compound 7a, 5-methyl-N-(2-(4-morpholino-5-(trifluoromethyl)phenyl)quinazolin-7-yl)isoxazole-4-carboxamide]",> 10,> 10,–,–
